Experimental data published in US20200197516A1, “Antagonists of Products of the HS.459642 Unigene Cluster for the Inhibition of Proliferation, Development or Differentiation of Stem Cells Including Cancer Stem Cells” (Cavion, Inc., priority 2011, published 2020).

System: glioma stem cells (GSC)
Assay: alamarBlue assay: sensitizing glioma stem cells to Temozolomide
Format: cell-based
Details: mibefradil 30 nM for 24 hrs, washed, then Temozolomide 5 μM for 24 hrs, FIG. 4
Protocol: FIG. 4. Effect of mibefradil (Mi) on sensitizing glioma stem cells (GSC) to Temozolomide (TMZ). The GSCs were seeded in 24 well plates as 50,000 cells/well overnight. They were grown in serum-free neurobasal media (Invitrogen), supplemented with human recombinant EGF and bFGF (R&D Systems) at 37° C. in 5% CO2, […]. Cells were treated with the T type calcium channel blocker mibefradil (30 nM) for 24 hrs, washed and then treated with Temozolomide (5 μM) for 24 hrs The reagent alamarBlue® (Invitrogen) was added to each well to arrive at a final concentration of 10% alamarBlue® in each well and fluorescence intensity was determined according to the manufacturers instructions. Plates were incubated for 1-2 hrs and 100 μl of supernatant was transferred to a 96 well plate for alamarBlue® reading.
FIG. 5. […]
In order to determine the effect of inhibition of a product of the Hs.459642 Unigene Cluster on cancer stem cells, the effect of two inhibitors of T-type calcium channels was studied to determine if CACNA1H inhibition sensitizes cancer cells to further anti-cancer treatment. […] Subsequent to the combination treatment, with the anti-cancer agent administered sequentially to the CACNA1H inhibitor, fluorescence intensity indicative of cell proliferation was analyzed, with greater intensity indicating increased cellular proliferation. […]

COCC(=O)O[C@]1(CCN(C)CCCc2nc3ccccc3[nH]2)CCc2cc(F)ccc2[C@@H]1C(C)C [Mi, mibefradil]
fluorescence intensity (alamarBlue, indicative of cell proliferation): dramatically reduced
